We go through one compound from ChEMBL document CHEMBL4665834 (J Med Chem, 2020).

The nature of data set [1]: Solubility of compound in water using crystalline form of sample. The class given is physicochemical.
The nature of data set [2]: Apparent permeability in human Caco-2 cells measured after 2 hrs by HPLC analysis. The format is ADME, cell-based. A general note: Caco-2 cells form a polarised layer with tight junctions and transporters.
Data set [3] can be described thus: Maximum oral bioavailability in rat hepatocytes based well stirred liver model at 1 uM measured after 2 to 90 mins by LC-MS/MS analysis. The format is ADME, Hepatocyte. The settings on record: time 2-90 min, read-out: Fmax.
Data set [4] is described as follows: Clearance in Wistar rat at 0.3 to 1 mg/kg, iv administered as bolus dose or 15 mins infusion by LC-MS/MS analysis. The class given is ADME, organism-based. The settings on record: Wistar, in vivo, dose 0.3-1 mg/kg.
A short description of data set [5]: Protein binding in pooled human plasma assessed as unbound fraction incubated for 6 hrs by LC-MS/MS analysis based equilibrium dialysis method. The class given is ADME, cell-free. (In general: In equilibrium dialysis only unbound substance equilibrates across the membrane.)
The target in data set [6] is Prostaglandin D2 receptor (Homo sapiens, UniProt Q13258). Put plainly: Displacement of [3H]PGD2 from full-length recombinant human DP1 receptor expressed in Chem-1 cell membranes measured after 120 mins by scintillation counting method. (In general: In a radioligand displacement assay an active substance lowers the binding of a labelled ligand.)
Data set [7] has as its target Prostaglandin E2 receptor EP4 subtype (Homo sapiens, UniProt P35408). As to the kind of experiment: Displacement of [3H]prostaglandin E2 from full-length recombinant human EP4 receptor expressed in HEK293 cell membranes measured after 120 mins by scintillation counting method.
Data set [8] can be described thus: Protein binding in pooled dog plasma assessed as unbound fraction incubated for 6 hrs by LC-MS/MS analysis based equilibrium dialysis method. The class given is ADME, cell-free, Canis lupus familiaris.
The nature of data set [9]: Protein binding in pooled rat plasma assessed as unbound fraction incubated for 6 hrs by LC-MS/MS analysis based equilibrium dialysis method. The format is ADME, cell-free.
Data set [10] is described as follows: Clearance in Balb/c mouse at 1 mg/kg, iv administered as bolus dose or 3 mg/kg, po administered via gavage by LC-MS/MS analysis. The following applies: in vivo. The format is ADME, organism-based.
Data set [11] is described as follows: Volume of distribution at steady state in Wistar rat at 1 mg/kg, iv administered as bolus dose or 3 mg/kg, po administered via gavage by LC-MS/MS analysis. The class given is ADME, organism-based. The following applies: in vivo, read-out: Vdss.
The nature of data set [12]: Terminal half life in Wistar rat at 1 mg/kg, iv administered as bolus dose by LC-MS/MS analysis. The settings on record: in vivo, read-out: beta t1/2 (converted). The class given is ADME, organism-based.
Data set [13] can be described thus: Toxicity in Beagle dog up to 1 g/kg/day, po administered for 14 days. The following applies: in vivo, 1000 mg/kg, 336 h, time 14 day. The format is organism-based, Canis lupus familiaris.

pIC50: −log10 of the molar value. Bounds are passed on as bounds.

Sequence of Prostaglandin E2 receptor EP4 subtype (P35408 whole entry): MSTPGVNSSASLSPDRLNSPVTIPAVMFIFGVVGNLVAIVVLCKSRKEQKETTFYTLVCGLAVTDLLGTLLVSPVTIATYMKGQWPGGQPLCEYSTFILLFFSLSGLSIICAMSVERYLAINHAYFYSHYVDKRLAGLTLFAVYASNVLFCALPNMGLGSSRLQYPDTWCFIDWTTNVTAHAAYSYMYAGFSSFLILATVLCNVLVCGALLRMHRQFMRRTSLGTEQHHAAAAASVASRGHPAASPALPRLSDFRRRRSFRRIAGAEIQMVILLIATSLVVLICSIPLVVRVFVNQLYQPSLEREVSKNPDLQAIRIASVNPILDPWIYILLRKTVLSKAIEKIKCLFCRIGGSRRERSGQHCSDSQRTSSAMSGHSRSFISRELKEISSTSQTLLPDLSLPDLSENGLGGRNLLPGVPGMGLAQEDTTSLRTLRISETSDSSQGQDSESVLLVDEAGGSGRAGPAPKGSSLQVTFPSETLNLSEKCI
Sequence of Prostaglandin D2 receptor (Q13258 whole entry): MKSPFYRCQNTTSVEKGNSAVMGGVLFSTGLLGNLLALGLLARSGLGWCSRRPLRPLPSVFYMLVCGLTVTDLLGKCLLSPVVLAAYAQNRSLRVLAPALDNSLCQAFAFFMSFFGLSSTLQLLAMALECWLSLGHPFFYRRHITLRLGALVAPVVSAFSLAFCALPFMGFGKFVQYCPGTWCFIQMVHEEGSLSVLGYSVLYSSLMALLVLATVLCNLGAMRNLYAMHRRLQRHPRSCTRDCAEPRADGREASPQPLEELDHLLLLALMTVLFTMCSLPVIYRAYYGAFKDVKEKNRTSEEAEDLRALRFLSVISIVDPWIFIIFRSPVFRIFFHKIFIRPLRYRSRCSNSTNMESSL

What is called solubility is the dissolved amount per volume that the medium holds. One may read the Papp as a coefficient for how fast a substance crosses the barrier. The fraction unbound is free concentration divided by total concentration. In general, pIC50 refers to −log10 of the IC50, conventionally taken in molar units. For `Cc1c(N2CCCC2)nc2ccc(Br)cc2c1C(=O)NC[C@H](CCC(=O)O)c1ccccc1Cl` [BAY-6672], the solubility in data set [1] is less than 1 µg/mL. Further, the apparent permeability (Papp) at 2 h in data set [2] is 26.7 ×10⁻⁶ cm/s. Also, in data set [3], the Fh at 1 µM is 67%. Also, the clearance in [4] is 11.7 mL/min/kg; in data set [10] it was 18.3 mL/min/kg. In addition, the fraction unbound at 6 h in data set [5], in data set [8] and in [9] was less than 0.01 in each case. The pIC50 in data set [6] is less than 5.00; in data set [7], less than 5.03. Further, in [11], the Vd came to 2.1 L/kg. In addition, the half-life in data set [12] was 3.8 h. In data set [13], the Activity entry was “Non-Toxic”.
